Laboratory results reported in patent publication US12697331B2, “Methods of use of T-type calcium channel modulators” (PRAXIS PRECISION MEDICINES, INC., priority 2020, dated 2026).
Structures can show the parent of a compound that is named as a salt.

Legend:
[1] = tested on: sigma band EEG power during NREM sleep; assay: 24-hour EEG/PSG: sigma band EEG power during NREM sleep; format: in vivo, human
Experimental: The effects of multiple doses of a wider dose range (Part A: 5, 10, 20 mg; Part B: 60, 80, 100, 120 mg) on sigma band EEG power during NREM sleep were also evaluated as part of the protocol described in Example 11, above. 24-hour EEG/PSG recordings were performed the day before dosing (baseline day) and after dosing on Days 4, 8, and 12 (for Part A) or Days 10, 17, 24, and 31 (for Part B). Part B also included placebo-treated participants for statistical comparisons.

[2] = Within-participant escalating dose trial Part B: safety and tolerability (TEAEs); format: in vivo, human; conditions: titration 20 to 120 mg per day; no maximum tolerated dosage identified; hydrochloride
[3] = tested on: NREM sigma, EO and EC gamma absolute power; assay: Population PKPD modelling of EEG power versus model-predicted plasma concentration (NONMEM); format: in vivo, human
Experimental: The pharmacokinetic/pharmacodynamic (PKPD) effects of administration a compound of formula (II) on EEG were also evaluated. The recording of the NREM sigma absolute power was reported as a single summary value of a single night of sleep following each dose on pre-specified days (baseline and Days 4, 8 and 12 for Example 11, Part A and Days 10, 17, 24, and 31 for Part B, as set forth in Tables 22 and 23, above. Each NREM sigma absolute power value was paired with a model predicted average plasma concentration (Cave) that corresponded to the 24-hour EEG recording period on the respective study day. For example, if the period of EEG recording for an individual was from 6 am on Day 4 to 6 am on Day 5, then the corresponding Cave was calculated as the average of the individual's model-predicted concentrations (sampled every 30 minutes) from that same time period. The resulting PKPD data were analyzed in a mixed-effects modelling framework using NONlinear Mixed Effects Modeling (NONMEM) software. The change from baseline NREM sigma absolute power was specified as the outcome and the primary explanatory variable was the Cave of a compound of formula (II).
The eyes open (EO) and eyes closed (EC) gamma absolute power for each individual was also estimated at specific time points across the study days.
The population PK model was used to generate Cave for NREM sigma absolute power and concentrations for EO and EC gamma absolute power. For NREM sigma absolute power, the Cave was computed for the final day of each dose level over the EEG collection interval. For EO and EC gamma absolute power, concentrations at 4 hours post-dose and 23.75 hours post-dose were generated on the final day of each dose level. The final population PKPD models for NREM sigma absolute power and EO and EC gamma absolute power were then used to generate corresponding EEG responses.

hCav3.3 = target: T1, hCav3.3 (Homo sapiens, UniProt Q9P0X4); assay: PatchXpress patch clamp, tonic block (resting state, -120 mV); format: cell-based
T1 construct: expressed in transfected cells; host or cells: HEK-293 (cultured under G418 selection)
Experimental: (§1) The voltage dependence of calcium channel isoforms was determined by comparing the activity of resting (Tonic Block) and half-inactivated (Voltage Dependent Block) voltages across various concentrations of Formula (II). First, HEK-293 cells containing hCav3.1, hCav3.2, or hCav3.3 calcium channel isoforms were prepared by seeding at 2×10^6 cells per flask in culture for 2 days; the cells were then harvested at about 6×10^6 cells. Harvested cells were washed once in DPBS for approximately 30 minutes, and 1 mL of 1× (0.05%) Trypsin-EDTA was added, swirled, and allowed to sit on the cells for approximately 4 minutes. 10 mL of warmed DMEM high glucose media supplemented with 10% fetal bovine serum, 2 mM sodium pyruvate, 10 mM HEPES, and 400 μg/mL G418 was added, and the cells were triturated until a single cell suspension was […]. Cells were placed in a 250 mL centrifuge tube with 30 mL warmed media and gently rocked at 28° C. for approximately 1 hour. Cell aliquots of 5 mLs (1×10^6 cells) were then centrifuged at 100× for 2 minutes, and supernatant was removed. Next, 100 μl of external recording solution was added to the remaining cell pellet and triturated 20 times to achieve a single cell suspension.
(§2) Immediately prior to assay, Formula (II) was diluted with DMSO to 300× the designated final concentration. All studies were performed using the Molecular Devices PatchXpress automated patch clamp platform at room temperature.
(§3) To determine the hCav3.1, hCav3.2, and hCav3.3 peak current from a resting, closed state (tonic block), currents were evokes by depolarizing pulses to −25 mV (10 ms) from −120 mV (a non-inactivated holding potential) at a frequency of 0.1 Hz. Peak current was defined as the peak inward current during Epoch 1 with no leak subtraction applied. Current stability was monitored, and the potency of each compound was determined using concentration response curves.
(§4) Pharmacology was measured during Epoch 1. Percent inhibition was calculated as: 100*((([Step 2+Step 5]/2)−Step 3)/(Step 2+Step 5/2)), wherein Step 2 is the peak current measured at baseline, Step 5 is the current measured during the wash period, and Step 3 is the peak current measured during application of the compound. The average of the final 3 consecutive currents in each experimental procedure was used for all calculations. The concentration response curve was fit with a Hill equation to derive IC50, slope, minimum response, and maximum response fitting parameters.

hCav3.1 = target: T2, hCav3.1 (Homo sapiens, UniProt O43497); assay: as above; format: cell-based
T2 construct: expressed in transfected cells; host or cells: HEK-293 (cultured under G418 selection)
T2 sequence (O43497 whole entry): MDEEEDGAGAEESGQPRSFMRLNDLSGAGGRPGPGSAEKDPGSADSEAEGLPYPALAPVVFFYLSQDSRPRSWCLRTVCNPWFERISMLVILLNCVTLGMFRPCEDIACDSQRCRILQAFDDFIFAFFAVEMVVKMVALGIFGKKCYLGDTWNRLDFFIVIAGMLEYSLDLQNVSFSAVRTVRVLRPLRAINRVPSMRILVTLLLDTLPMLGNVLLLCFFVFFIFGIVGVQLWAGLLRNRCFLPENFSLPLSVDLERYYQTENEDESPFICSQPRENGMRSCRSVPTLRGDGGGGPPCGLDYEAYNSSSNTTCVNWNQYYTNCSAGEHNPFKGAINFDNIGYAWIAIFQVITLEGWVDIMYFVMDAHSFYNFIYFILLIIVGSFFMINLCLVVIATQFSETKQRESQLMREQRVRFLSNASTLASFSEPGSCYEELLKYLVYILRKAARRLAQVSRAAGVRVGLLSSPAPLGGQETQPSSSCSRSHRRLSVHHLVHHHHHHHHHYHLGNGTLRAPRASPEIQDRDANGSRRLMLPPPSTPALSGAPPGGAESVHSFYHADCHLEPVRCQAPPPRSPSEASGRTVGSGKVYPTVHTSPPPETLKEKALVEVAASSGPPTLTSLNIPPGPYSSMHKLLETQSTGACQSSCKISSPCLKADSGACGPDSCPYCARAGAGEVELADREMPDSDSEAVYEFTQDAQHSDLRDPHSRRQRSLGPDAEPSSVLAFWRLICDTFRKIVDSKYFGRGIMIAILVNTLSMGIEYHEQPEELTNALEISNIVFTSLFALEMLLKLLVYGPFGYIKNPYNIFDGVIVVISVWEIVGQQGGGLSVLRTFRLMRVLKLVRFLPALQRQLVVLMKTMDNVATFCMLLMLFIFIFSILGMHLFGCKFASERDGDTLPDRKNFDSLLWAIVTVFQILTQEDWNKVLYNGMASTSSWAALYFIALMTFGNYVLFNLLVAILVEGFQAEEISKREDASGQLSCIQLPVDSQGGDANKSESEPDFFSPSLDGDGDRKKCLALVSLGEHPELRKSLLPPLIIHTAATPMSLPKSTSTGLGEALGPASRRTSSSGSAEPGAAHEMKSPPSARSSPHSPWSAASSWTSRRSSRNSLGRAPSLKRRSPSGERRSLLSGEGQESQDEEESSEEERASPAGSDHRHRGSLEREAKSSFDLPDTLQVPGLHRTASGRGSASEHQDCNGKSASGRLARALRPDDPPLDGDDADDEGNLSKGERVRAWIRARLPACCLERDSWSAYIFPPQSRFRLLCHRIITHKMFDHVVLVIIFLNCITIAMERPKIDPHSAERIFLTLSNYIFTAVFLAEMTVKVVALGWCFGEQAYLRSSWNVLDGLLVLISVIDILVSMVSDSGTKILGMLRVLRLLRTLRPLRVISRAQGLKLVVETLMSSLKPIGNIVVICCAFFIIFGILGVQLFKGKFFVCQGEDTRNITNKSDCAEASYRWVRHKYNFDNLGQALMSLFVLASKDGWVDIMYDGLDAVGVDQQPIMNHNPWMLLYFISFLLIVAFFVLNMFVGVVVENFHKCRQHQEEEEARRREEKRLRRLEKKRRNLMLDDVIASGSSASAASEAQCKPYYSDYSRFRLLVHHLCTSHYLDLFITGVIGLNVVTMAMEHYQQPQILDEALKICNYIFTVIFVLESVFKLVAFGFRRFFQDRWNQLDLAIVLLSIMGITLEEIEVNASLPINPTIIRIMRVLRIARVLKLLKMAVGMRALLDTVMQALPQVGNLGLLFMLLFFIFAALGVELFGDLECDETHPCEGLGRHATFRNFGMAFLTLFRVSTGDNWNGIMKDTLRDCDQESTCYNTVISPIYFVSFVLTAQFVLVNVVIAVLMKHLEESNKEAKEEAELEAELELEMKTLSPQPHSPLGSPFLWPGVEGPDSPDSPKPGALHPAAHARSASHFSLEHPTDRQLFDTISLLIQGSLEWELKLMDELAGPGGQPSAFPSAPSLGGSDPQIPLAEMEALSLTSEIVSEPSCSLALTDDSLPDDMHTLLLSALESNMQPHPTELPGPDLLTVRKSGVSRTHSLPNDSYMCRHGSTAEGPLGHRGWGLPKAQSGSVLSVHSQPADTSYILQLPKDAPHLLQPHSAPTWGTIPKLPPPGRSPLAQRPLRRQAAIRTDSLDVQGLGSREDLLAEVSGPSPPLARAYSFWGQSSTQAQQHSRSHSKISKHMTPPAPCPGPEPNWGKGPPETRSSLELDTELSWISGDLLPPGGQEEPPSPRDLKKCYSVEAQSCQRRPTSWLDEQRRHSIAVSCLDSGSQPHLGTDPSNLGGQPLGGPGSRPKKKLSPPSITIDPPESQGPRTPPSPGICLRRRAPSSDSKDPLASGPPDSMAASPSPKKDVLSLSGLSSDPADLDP
Experimental: as §1, §2, §3, §4

hCav3.2 = target: T3, hCav3.2 (Homo sapiens, UniProt O95180); assay: as above; format: cell-based
T3 construct: expressed in transfected cells; host or cells: HEK-293 (cultured under G418 selection)
T3 sequence (O95180 whole entry): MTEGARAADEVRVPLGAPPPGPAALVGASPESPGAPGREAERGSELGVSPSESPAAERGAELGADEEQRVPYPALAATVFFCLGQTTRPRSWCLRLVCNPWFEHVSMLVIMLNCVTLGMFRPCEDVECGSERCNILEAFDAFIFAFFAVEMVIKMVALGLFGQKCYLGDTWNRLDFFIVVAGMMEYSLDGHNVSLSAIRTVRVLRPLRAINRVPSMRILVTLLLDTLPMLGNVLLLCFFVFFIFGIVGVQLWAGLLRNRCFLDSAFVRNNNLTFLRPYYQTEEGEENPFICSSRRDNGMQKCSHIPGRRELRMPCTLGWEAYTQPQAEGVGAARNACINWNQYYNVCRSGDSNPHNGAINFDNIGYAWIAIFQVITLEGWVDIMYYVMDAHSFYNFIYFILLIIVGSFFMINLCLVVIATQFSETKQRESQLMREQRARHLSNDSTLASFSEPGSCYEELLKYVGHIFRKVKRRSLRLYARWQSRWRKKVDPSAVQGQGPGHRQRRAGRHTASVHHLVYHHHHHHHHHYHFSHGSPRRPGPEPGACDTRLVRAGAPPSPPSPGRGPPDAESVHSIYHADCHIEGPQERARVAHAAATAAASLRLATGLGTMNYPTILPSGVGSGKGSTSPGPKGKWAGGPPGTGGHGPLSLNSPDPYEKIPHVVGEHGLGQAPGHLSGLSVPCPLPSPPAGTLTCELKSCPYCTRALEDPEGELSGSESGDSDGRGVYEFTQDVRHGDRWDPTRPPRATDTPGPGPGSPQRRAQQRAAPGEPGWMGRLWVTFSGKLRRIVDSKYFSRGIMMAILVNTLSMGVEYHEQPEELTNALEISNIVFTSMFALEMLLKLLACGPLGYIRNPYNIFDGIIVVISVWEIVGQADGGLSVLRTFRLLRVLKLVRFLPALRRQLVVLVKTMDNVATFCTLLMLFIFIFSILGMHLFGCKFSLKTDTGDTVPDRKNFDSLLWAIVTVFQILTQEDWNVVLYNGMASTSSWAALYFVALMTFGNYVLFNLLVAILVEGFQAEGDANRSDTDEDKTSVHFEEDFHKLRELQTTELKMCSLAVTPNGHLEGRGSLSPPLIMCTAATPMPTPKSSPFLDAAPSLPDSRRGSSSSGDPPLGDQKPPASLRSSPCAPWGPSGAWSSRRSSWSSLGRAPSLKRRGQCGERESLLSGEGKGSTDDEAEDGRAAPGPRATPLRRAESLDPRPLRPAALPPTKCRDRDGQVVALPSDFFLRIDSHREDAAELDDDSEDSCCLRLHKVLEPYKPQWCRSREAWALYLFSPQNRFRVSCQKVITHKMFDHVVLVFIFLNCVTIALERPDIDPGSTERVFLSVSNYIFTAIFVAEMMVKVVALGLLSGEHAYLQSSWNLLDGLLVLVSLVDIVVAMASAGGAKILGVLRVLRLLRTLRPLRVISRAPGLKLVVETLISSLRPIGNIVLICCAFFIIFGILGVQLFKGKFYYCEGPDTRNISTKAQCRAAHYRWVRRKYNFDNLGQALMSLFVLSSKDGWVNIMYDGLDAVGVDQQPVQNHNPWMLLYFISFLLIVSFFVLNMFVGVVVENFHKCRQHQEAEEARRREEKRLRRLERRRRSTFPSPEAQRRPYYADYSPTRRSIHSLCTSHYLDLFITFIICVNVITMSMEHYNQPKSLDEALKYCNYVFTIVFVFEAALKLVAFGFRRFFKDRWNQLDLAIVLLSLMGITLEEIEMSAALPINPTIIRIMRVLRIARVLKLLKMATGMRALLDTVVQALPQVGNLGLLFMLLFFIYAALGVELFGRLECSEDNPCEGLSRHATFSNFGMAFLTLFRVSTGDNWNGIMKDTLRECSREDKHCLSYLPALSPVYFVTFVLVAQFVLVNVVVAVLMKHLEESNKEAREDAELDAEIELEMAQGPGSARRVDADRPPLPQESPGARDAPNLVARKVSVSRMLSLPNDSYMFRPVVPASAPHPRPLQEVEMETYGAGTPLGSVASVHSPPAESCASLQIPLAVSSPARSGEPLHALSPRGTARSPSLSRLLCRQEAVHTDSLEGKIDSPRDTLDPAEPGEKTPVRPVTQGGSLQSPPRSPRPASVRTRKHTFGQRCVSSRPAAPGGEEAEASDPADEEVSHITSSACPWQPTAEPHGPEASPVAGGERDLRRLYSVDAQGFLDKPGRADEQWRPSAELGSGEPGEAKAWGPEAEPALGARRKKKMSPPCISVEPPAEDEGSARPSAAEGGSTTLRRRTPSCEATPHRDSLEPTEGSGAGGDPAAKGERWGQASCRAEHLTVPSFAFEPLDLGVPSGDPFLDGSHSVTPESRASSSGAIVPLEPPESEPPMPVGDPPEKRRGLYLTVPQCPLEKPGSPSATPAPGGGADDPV
Experimental: as §1, §2, §3, §4

[4] = Food effect: high-fat, high-calorie meal, single 20 mg dose; format: in vivo, human; conditions: single 20 mg oral dose
Experimental: The effect of a high-fat, high-calorie meal on the pharmacokinetics of a compound of formula (II) was evaluated in an open-label, sequential fashion following a single 20 mg dose of formulation 5 in participants who had previously received a 20 mg dose of formulation 5 under fasted conditions.

In the case of CC(C)(C)NC(=O)CN1CCC(CNC(=O)c2cc(F)cc(Cl)c2)CC1 [compound of formula (II), N-((1-(2-(tert-butylamino)-2-oxoethyl)piperidin-4-yl)methyl)-3-chloro-5-fluorobenzamide hydrochloride], the “Effect on NREM sigma band as compared to a placebo control” value ([1]; 20 mg tablet and 40 mg tablet (FIG. 12)) is reported as “decrease”, the “NREM sigma power, Difference Ratio Formula (II) v. Placebo” value ([1]; Day 10 (60 mg), Part B) is reported as 0.550 and the “Dose at which the decrease in sigma band EEG power plateaued” value ([1]; Part B, relative to placebo-treated subjects) is reported as 80 mg. For the same compound, the “Dose levels well-tolerated with a titrated dosing schedule” value [2] was “up to 120 mg per day”, the “Cave at which maximum reduction in NREM sigma absolute power appeared to occur” value ([3]; model predicted average plasma concentration, titrated) was “greater than 180 ng/mL” and the “C(t) at which maximum reduction in EC gamma absolute power appeared to occur” value ([3]; titrated up to 120 mg) was greater than 300 ng/mL. The “C(t) at which maximum reduction in EO gamma absolute power appeared to occur” value ([3]; titrated up to 120 mg) was greater than 300 ng/mL, the “Inhibition of peak current, tonic block, Mean” value (“Inhibition of peak current” below) (hCav3.3; 0.09 μm) was 3.8 (7) % and the “Inhibition of peak current” value (hCav3.3; 0.27 μm) was 23.0 (11) %. The “Inhibition of peak current” value (hCav3.3; 0.91 μm) was 54.5 (5) %, the “Inhibition of peak current” value (hCav3.3; 2.74 μm) was 77.1 (6) % and the “Inhibition of peak current” value (hCav3.3; 9.13 μm) was 92.1 (5) %. For the same compound, the “Inhibition of peak current” value (hCav3.3; 27.40 μm) was 94.6 (5) %, the “Inhibition of peak current” value (hCav3.1; 0.09 μm) was 8.8 (7) % and the “Inhibition of peak current” value (hCav3.1; 0.27 μm) was 29.4 (11) %. The “Inhibition of peak current” value (hCav3.1; 0.91 μm) was 50.2 (9) %, the “Inhibition of peak current” value (hCav3.1; 2.74 μm) was 67.5 (10) % and the “Inhibition of peak current” value (hCav3.1; 9.13 μm) was 76.6 (9) %. For the same compound, the “Inhibition of peak current” value (hCav3.1; 27.40 μm) was 89.5 (4) %, the “Inhibition of peak current” value (hCav3.2; 0.09 μm) was 12.6 (4) % and the “Inhibition of peak current” value (hCav3.2; 0.27 μm) was 37.1 (6) %. The “Inhibition of peak current” value (hCav3.2; 0.91 μm) was 55.1 (13) %, the “Inhibition of peak current” value (hCav3.2; 2.74 μm) was 76.2% and the “Inhibition of peak current” value (hCav3.2; 9.13 μm) was 89.7%. For the same compound, the “Inhibition of peak current” value (hCav3.2; 27.40 μm) was 96.9%, the “Inhibition of peak current” value (hCav3.2; 91.33 μm) was 98.2% and the “AUClast Ratio (fed/fasted)” value [4] was 1.14. The “AUC∞ Ratio (fed/fasted)” value [4] was 1.15 and the “Cmax Ratio (fed/fasted)” value [4] was 1.49.
